Laboratory results as given in ChEMBL document CHEMBL1152321, “Recent advances in the chemistry and biology of new generation taxoids” (J Nat Prod, 2009).

Legend:
[1] = Cytotoxicity against P-glycoprotein deficient wild type human LCC-6 cells after 72 hrs; format: functional, cell-based; conditions: LCC-6, 72 h
[2] = test system: MCF7; assay: Cytotoxicity against human MCF7 cells expressing P-glycoprotein after 72 hrs; format: functional, cell-based; conditions: MCF7, 72 h
[3] = test system: MCF7; assay: Resistance factor, ratio of IC50 for human MCF7 cells expressing P-glycoprotein to IC50 for P-glycoprotein deficient wild type human MCF7 cells; format: functional
[4] = test system: MCF7; assay: Cytotoxicity against P-glycoprotein deficient wild type human MCF7 cells after 72 hrs; format: functional, cell-based; conditions: MCF7, 72 h
[5] = test system: HT-29; assay: Cytotoxicity against human HT-29 cells after 72 hrs; format: functional, cell-based; conditions: HT-29, 72 h
[6] = Resistance factor, ratio of IC50 for human LCC-6 cells expressing P-glycoprotein to IC50 for P-glycoprotein deficient wild type human LCC-6 cells; format: functional; parameters: reference not given here

Compound	IC50 [1] [nM]	Ratio [6]	further results
C/C=C/[C@H](NC(=O)OC(C)(C)C)[C@@H](O)C(=O)O[C@H]1C[C@@]2(O)[C@@H](OC(=O)c3cccc(OC)c3)[C@@H]3[C@]4(OC(C)=O)CO[C@@H]4C[C@H](O)[C@@]3(C)C(=O)[C@H](OC(=O)CC)C(=C1C)C2(C)C	1.2	–	–
CC(=O)O[C@H]1C(=O)[C@@]2(C)[C@H]([C@H](OC(=O)c3cccc(N=[N+]=[N-])c3)[C@]3(O)C[C@H](OC(=O)[C@H](O)[C@H](C=C(F)F)NC(=O)OC(C)(C)C)C(C)=C1C3(C)C)[C@]1(OC(C)=O)CO[C@@H]1C[C@@H]2O	–	–	IC50 [2]: 0.34 nM; Ratio [3]: 3.7; IC50 [4]: 0.092 nM
CC(=O)O[C@@]12CO[C@@H]1C[C@H](O)[C@@]1(C)C(=O)[C@H](O)C3=C(C)[C@@H](OC(=O)[C@H](O)[C@@H](NC(=O)OC(C)(C)C)c4ccccc4)C[C@@](O)([C@@H](OC(=O)c4ccccc4)[C@H]21)C3(C)C.O.O.O [DOCETAXEL]	1	–	IC50 [2]: 215 nM; IC50 [5]: 1 nM
COC(=O)O[C@H]1C(=O)[C@@]2(C)[C@H]([C@H](OC(=O)c3cccc(N=[N+]=[N-])c3)[C@]3(O)C[C@H](OC(=O)[C@H](O)[C@H](C=C(F)F)NC(=O)OC(C)(C)C)C(C)=C1C3(C)C)[C@]1(OC(C)=O)CO[C@@H]1C[C@@H]2O	–	–	IC50 [2]: 0.4 nM; Ratio [3]: 5.3; IC50 [4]: 0.078 nM
COc1ccccc1CCC(=O)O[C@H]1C(=O)[C@@]2(C)[C@H]([C@H](OC(=O)c3ccccc3)[C@]3(O)C[C@H](OC(=O)[C@H](O)[C@H](C=C(C)C)NC(=O)OC(C)(C)C)C(C)=C1C3(C)C)[C@]1(OC(C)=O)CO[C@@H]1C[C@@H]2O	1.5	3.3	–
COc1cccc(C(=O)O[C@H]2[C@@H]3[C@]4(OC(C)=O)CO[C@@H]4C[C@H](O)[C@@]3(C)C(=O)[C@H](OC(=O)C3CC3)C3=C(C)[C@@H](OC(=O)[C@H](O)[C@H](C=C(F)F)NC(=O)OC(C)(C)C)C[C@]2(O)C3(C)C)c1	–	–	IC50 [2]: 0.48 nM; Ratio [3]: 5.2; IC50 [4]: 0.092 nM
CC(=O)O[C@@]12CO[C@@H]1C[C@H](O)[C@@]1(C)C(=O)[C@H](OC(=O)c3cccc4ccccc34)C3=C(C)[C@@H](OC(=O)[C@H](O)[C@H](C=C(C)C)NC(=O)OC(C)(C)C)C[C@@](O)([C@@H](OC(=O)c4ccccc4)[C@H]21)C3(C)C	5.3	2.9	–
CCC(=O)O[C@H]1C(=O)[C@@]2(C)[C@H]([C@H](OC(=O)c3cccc(N=[N+]=[N-])c3)[C@]3(O)C[C@H](OC(=O)[C@H](O)[C@H](C=C(C)C)NC(=O)OC(C)(C)C)C(C)=C1C3(C)C)[C@]1(OC(C)=O)CO[C@@H]1C[C@@H]2O	0.9	–	–
COc1cccc(C(=O)O[C@H]2C(=O)[C@@]3(C)[C@H]([C@H](OC(=O)c4ccccc4)[C@]4(O)C[C@H](OC(=O)[C@H](O)[C@H](C=C(C)C)NC(=O)OC(C)(C)C)C(C)=C2C4(C)C)[C@]2(OC(C)=O)CO[C@@H]2C[C@@H]3O)c1	2.8	1.8	–
COc1cccc(CC(=O)O[C@H]2C(=O)[C@@]3(C)[C@H]([C@H](OC(=O)c4ccccc4)[C@]4(O)C[C@H](OC(=O)[C@H](O)[C@H](C=C(C)C)NC(=O)OC(C)(C)C)C(C)=C2C4(C)C)[C@]2(OC(C)=O)CO[C@@H]2C[C@@H]3O)c1	2.1	9.7	–
CCC(=O)O[C@H]1C(=O)[C@@]2(C)[C@H]([C@H](OC(=O)c3cccc(Cl)c3)[C@]3(O)C[C@H](OC(=O)[C@H](O)[C@H](C=C(C)C)NC(=O)OC(C)(C)C)C(C)=C1C3(C)C)[C@]1(OC(C)=O)CO[C@@H]1C[C@@H]2O	0.8	–	–
COc1ccc(CCC(=O)O[C@H]2C(=O)[C@@]3(C)[C@H]([C@H](OC(=O)c4ccccc4)[C@]4(O)C[C@H](OC(=O)[C@H](O)[C@H](C=C(C)C)NC(=O)OC(C)(C)C)C(C)=C2C4(C)C)[C@]2(OC(C)=O)CO[C@@H]2C[C@@H]3O)cc1	1.7	2.9	–
CC(=O)O[C@@]12CO[C@@H]1C[C@H](O)[C@@]1(C)C(=O)[C@H](OC(=O)c3ccc4ccccc4c3)C3=C(C)[C@@H](OC(=O)[C@H](O)[C@H](C=C(C)C)NC(=O)OC(C)(C)C)C[C@@](O)([C@@H](OC(=O)c4ccccc4)[C@H]21)C3(C)C	6.3	2.4	–
CC(=O)O[C@@]12CO[C@@H]1C[C@H](O)[C@@]1(C)C(=O)[C@H](OC(=O)C3CC3)C3=C(C)[C@@H](OC(=O)[C@H](O)[C@H](C=C(F)F)NC(=O)OC(C)(C)C)C[C@@](O)([C@@H](OC(=O)c4cccc(N=[N+]=[N-])c4)[C@H]21)C3(C)C	–	–	IC50 [2]: 0.45 nM; Ratio [3]: 4.9; IC50 [4]: 0.092 nM
CCC(=O)O[C@H]1C(=O)[C@@]2(C)[C@H]([C@H](OC(=O)c3cccc(N=[N+]=[N-])c3)[C@]3(O)C[C@H](OC(=O)[C@H](O)[C@H](CC(C)C)NC(=O)OC(C)(C)C)C(C)=C1C3(C)C)[C@]1(OC(C)=O)CO[C@@H]1C[C@@H]2O	1.1	–	–
C=Cc1cccc(C(=O)O[C@H]2[C@@H]3[C@]4(OC(C)=O)CO[C@@H]4C[C@H](O)[C@@]3(C)C(=O)[C@H](OC(=O)CC)C3=C(C)[C@@H](OC(=O)[C@H](O)[C@H](C=C(C)C)NC(=O)OC(C)(C)C)C[C@]2(O)C3(C)C)c1	2.9	–	–

Compound	IC50 [1] [nM]	Ratio [6]	further results
COC(=O)O[C@H]1C(=O)[C@@]2(C)[C@H]([C@H](OC(=O)c3cccc(OC)c3)[C@]3(O)C[C@H](OC(=O)[C@H](O)[C@H](C=C(F)F)NC(=O)OC(C)(C)C)C(C)=C1C3(C)C)[C@]1(OC(C)=O)CO[C@@H]1C[C@@H]2O	–	–	IC50 [2]: 0.5 nM; Ratio [3]: 6.4; IC50 [4]: 0.078 nM
COc1cccc(C(=O)O[C@H]2[C@@H]3[C@]4(OC(C)=O)CO[C@@H]4C[C@H](O)[C@@]3(C)C(=O)[C@H](OC(C)=O)C3=C(C)[C@@H](OC(=O)[C@H](O)[C@H](C=C(C)C)NC(=O)OC(C)(C)C)C[C@]2(O)C3(C)C)c1	0.6	–	–
CC(=O)O[C@@]12CO[C@@H]1C[C@H](O)[C@@]1(C)C(=O)[C@H](OC(=O)c3ccccc3)C3=C(C)[C@@H](OC(=O)[C@H](O)[C@H](C=C(C)C)NC(=O)OC(C)(C)C)C[C@@](O)([C@@H](OC(=O)c4ccccc4)[C@H]21)C3(C)C	1.8	2.7	–
CC(=O)O[C@@]12CO[C@@H]1C[C@H](O)[C@@]1(C)C(=O)[C@H](OC(=O)OCc3ccccc3)C3=C(C)[C@@H](OC(=O)[C@H](O)[C@H](C=C(C)C)NC(=O)OC(C)(C)C)C[C@@](O)([C@@H](OC(=O)c4ccccc4)[C@H]21)C3(C)C	1.8	9.3	–
CCC(=O)O[C@H]1C(=O)[C@@]2(C)[C@H]([C@H](OC(=O)c3cccc(F)c3)[C@]3(O)C[C@H](OC(=O)[C@H](O)[C@H](C=C(C)C)NC(=O)OC(C)(C)C)C(C)=C1C3(C)C)[C@]1(OC(C)=O)CO[C@@H]1C[C@@H]2O	0.5	–	–
CC(=O)O[C@@]12CO[C@@H]1C[C@H](O)[C@@]1(C)C(=O)[C@H](OC(=O)CCc3ccccc3)C3=C(C)[C@@H](OC(=O)[C@H](O)[C@H](C=C(C)C)NC(=O)OC(C)(C)C)C[C@@](O)([C@@H](OC(=O)c4ccccc4)[C@H]21)C3(C)C	5.1	6.1	–
COc1ccccc1C(=O)O[C@H]1C(=O)[C@@]2(C)[C@H]([C@H](OC(=O)c3ccccc3)[C@]3(O)C[C@H](OC(=O)[C@H](O)[C@H](C=C(C)C)NC(=O)OC(C)(C)C)C(C)=C1C3(C)C)[C@]1(OC(C)=O)CO[C@@H]1C[C@@H]2O	2.1	2.7	–
COc1cccc(C(=O)O[C@H]2[C@@H]3[C@]4(OC(C)=O)CO[C@@H]4C[C@H](O)[C@@]3(C)C(=O)[C@H](OC(=O)C3CC3)C3=C(C)[C@@H](OC(=O)[C@H](O)[C@H](C=C(C)C)NC(=O)OC(C)(C)C)C[C@]2(O)C3(C)C)c1	1	2.9	–
CC(=O)O[C@H]1C(=O)[C@@]2(C)[C@H]([C@H](OC(=O)c3cccc(C)c3)[C@]3(O)C[C@H](OC(=O)[C@H](O)[C@H](C=C(C)C)NC(=O)OC(C)(C)C)C(C)=C1C3(C)C)[C@]1(OC(C)=O)CO[C@@H]1C[C@@H]2O	1.5	–	–
COc1cccc(CCC(=O)O[C@H]2C(=O)[C@@]3(C)[C@H]([C@H](OC(=O)c4ccccc4)[C@]4(O)C[C@H](OC(=O)[C@H](O)[C@H](C=C(C)C)NC(=O)OC(C)(C)C)C(C)=C2C4(C)C)[C@]2(OC(C)=O)CO[C@@H]2C[C@@H]3O)c1	3.7	1.8	–
CCC(=O)O[C@H]1C(=O)[C@@]2(C)[C@H]([C@H](OC(=O)c3cccc(OC)c3)[C@]3(O)C[C@H](OC(=O)[C@H](O)[C@H](C=C(F)F)NC(=O)OC(C)(C)C)C(C)=C1C3(C)C)[C@]1(OC(C)=O)CO[C@@H]1C[C@@H]2O	–	–	IC50 [2]: 0.57 nM; Ratio [3]: 1.7; IC50 [4]: 0.34 nM
CCC(=O)O[C@H]1C(=O)[C@@]2(C)[C@H]([C@H](OC(=O)c3cccc(OC)c3)[C@]3(O)C[C@H](OC(=O)[C@H](O)[C@@H](NC(=O)OC(C)(C)C)[C@H]4CC4(C)C)C(C)=C1C3(C)C)[C@]1(OC(C)=O)CO[C@@H]1C[C@@H]2O	0.48	–	–
COc1ccc(C(=O)O[C@H]2C(=O)[C@@]3(C)[C@H]([C@H](OC(=O)c4ccccc4)[C@]4(O)C[C@H](OC(=O)[C@H](O)[C@H](C=C(C)C)NC(=O)OC(C)(C)C)C(C)=C2C4(C)C)[C@]2(OC(C)=O)CO[C@@H]2C[C@@H]3O)cc1	3.8	1.2	–
CCC(=O)O[C@H]1C(=O)[C@@]2(C)[C@H]([C@H](OC(=O)c3cccc(F)c3)[C@]3(O)C[C@H](OC(=O)[C@H](O)[C@H](CC(C)C)NC(=O)OC(C)(C)C)C(C)=C1C3(C)C)[C@]1(OC(C)=O)CO[C@@H]1C[C@@H]2O	0.4	6	–
COc1ccccc1CC(=O)O[C@H]1C(=O)[C@@]2(C)[C@H]([C@H](OC(=O)c3ccccc3)[C@]3(O)C[C@H](OC(=O)[C@H](O)[C@H](C=C(C)C)NC(=O)OC(C)(C)C)C(C)=C1C3(C)C)[C@]1(OC(C)=O)CO[C@@H]1C[C@@H]2O	2.3	6	–
